The results in this text go back to US3992446A, “Substituted aminochlorobenzylamino guanidine compounds” (American Cyanamid Company, priority 1975, dated 1976).

Structures can show the parent of a compound that is named as a salt. Where two headings read alike, the source gives them in different places.

Common to all, as to assay type: in vivo
The test system of one assay is Eimeria tenella. The assay is described as follows: anticoccidial activity against Eimeria tenella in inoculated Peterson Cross Cockerels, medicated diet, survival. The note with it: 168 h; for responders at 120 µg/mL: 120 parts per million in diet; for responders at 15 µg/mL: 15 parts per million in diet; for responders at 20 µg/mL: 20 parts per million in diet. An excerpt: (§1) For example, these compounds have anticoccidial activity against Eimeria tenella as shown by the following test: The animals were Peterson Cross Cockerels, 7 days old and of approximately equal size and weight. These cockerels were divided into groups and the groups were placed in separate cages with wire floors. Medicated and control diets were then presented to the groups of birds 2 days before inoculation while they were still in uncontaminated quarters. During the entire period of the tests, the birds ate and drank ad libitum. Control groups were maintained on a standard unmedicated commercial type chicken diet. Test groups were maintained on the same standard diet in which a measured concentration of test compound had been incorporated homogeneously. The cockerels were inoculated once orally with sporulated oocysts of Eimeria tenella. The number of oocysts inoculated directly into the crops of all cockerels in the tests was sufficient to produce high mortality in the untreated controls. […] Seven days following inoculation the tests were terminated and the mortality rate was recorded for each group. […] The tests represent very severe laboratory challenges, and lower concentrations than those shown would be effective under practical field conditions.

The subject of a further assay is coccidia. Description: anti-coccidial activity, comparison with prior art compounds of Lieber et al.
A further assay concerns E. acervulina. Description: anticoccidial activity against E. acervulina in chickens (survival, weight gain).
Source text: as §1
(§2) The compounds of the present invention have high activity against other coccidial species in chickens. […] Methods used were essentially identical with those previously cited with appropriate modifications. Weight gains were determined 7 days after single experimental inoculations with the designated species of coccidia.

For another assay, the system named is E. brunetti. The assay is described as follows: anticoccidial activity against E. brunetti in chickens (survival, weight gain). The note with it: for % Survival / Weight gain: brunetti; for Weight gain: 7 days after inoculation.
Source text: as §1, §2

Another assay deals with E. maxima. Description: anticoccidial activity against E. maxima in chickens (survival, weight gain). As to conditions: for % Survival / Weight gain: maxima; for Weight gain: 7 days after inoculation.
Source text: as §1, §2

The next assay concerns Eimeria necatrix. The assay is described as follows: anticoccidial activity against Eimeria necatrix in chickens (survival, weight gain). As to conditions: for % Survival / Weight gain: necatrix; for Weight gain: 7 days after inoculation.
Source text: as §1, §2

For the next assay, the system named is E. mivati. Description: anticoccidial activity against E. mivati in chickens (survival, weight gain). The note with it: for % Survival / Weight gain: mivati; for Weight gain: 7 days after inoculation.
Source text: as §1, §2

Setting [1] is: 30 parts per million in diet, 7 days after inoculation, read-out: % Survival.
[2] abbreviates: 10 parts per million in diet, 7 days after inoculation, read-out: % Survival.

Take `N=C(NN=Cc1ccc(Cl)c(Cl)c1)NN=Cc1ccc(Cl)c(Cl)c1` [1,3-Bis(3,4-dichlorobenzylideneamino)guanidine Nitrate]: the responders at 60 µg/mL in the assay on Eimeria tenella (read-out: % Survival) came out at 100%.

With `N=C(NN=Cc1ccc(Br)cc1)NN=Cc1ccc(Br)cc1.O=[N+]([O-])O` [1,3-Bis(4-bromobenzylideneamino)guanidine Nitrate], in the assay with Eimeria tenella (read-out: % Survival), the responders at 17 µg/mL was found to be 80% and the responders at 35 µg/mL is 95%. Besides, the “Activity (anti-coccidial)” value with coccidia (dosage 17 parts per million) is on record as “active”.

As for `CN(N=Cc1ccc(Cl)cc1)C(=N)N(C)N=Cc1ccc(Cl)cc1` [1,3-Bis(4-chlorobenzylideneamino)-1,3-dimethylguanidine hydrobromide], the responders at 30 µg/mL with Eimeria tenella (setting [1]) was 100%. The responders at 120 µg/mL in the assay with Eimeria tenella (7 days after inoculation) turned out to be 100%.

For `N=C(NN=Cc1ccc(Cl)cc1)NN=Cc1ccc(Cl)cc1.O=[N+]([O-])O` [1,3-Bis(4-chlorobenzylideneamino)guanidine nitrate], the “% Survival” value with E. acervulina (acervulina, 45 ppm in diet) was 100%. Also, in the assay on E. acervulina (acervulina, 45 ppm in diet, 7 days after inoculation), the Weight gain is listed as 99 % control. In the assay with Eimeria tenella (read-out: % Survival), the responders at 18 µg/mL worked out at 77%, the responders at 36 µg/mL stood at 96% and the responders at 54 µg/mL came to 100%. In addition, the “Activity (anti-coccidial)” value in the assay with coccidia (dosage 18 parts per million) was “active”.

Regarding `N=C(NN=Cc1ccc(Cl)cc1)NN=Cc1ccc(Cl)cc1` [1,3-Bis(4-chlorobenzylideneamino)guanidine], the “protection from poor weight gains due to E. brunetti” value with E. brunetti (treated chickens) is given as “completely protected”. Moreover, the “protection from poor weight gains due to E. acervulina” value in the assay on E. acervulina (treated chickens) is “completely protected”. Moreover, in the assay on E. maxima (treated chickens), the “protection from poor weight gains due to E. maxima” value is “completely protected”. For the same compound, in the assay on Eimeria necatrix (treated chickens), the “protection from mortality due to Eimeria necatrix” value was “completely protected”. The “protection from poor weight gains due to E. mivati” value with E. mivati (treated chickens) is “completely protected”.

With `N#Cc1ccc(C=NNC(=N)NN=Cc2ccc(C#N)cc2)cc1` [1,3-Bis(4-cyanobenzylideneamino)guanidine Nitrate], in the assay on Eimeria tenella (read-out: % Survival), the responders at 30 µg/mL turned out to be 80% and the responders at 60 µg/mL was found to be 100%.

As to `N=C(NN=Cc1ccc(F)cc1)NN=Cc1ccc(F)cc1` [1,3-Bis(4-fluorobenzylideneamino)guanidine Nitrate], the responders at 93 µg/mL with Eimeria tenella (read-out: % Survival) is 80%.

In the case of `Cl.N=C(NN=Cc1ccc(I)cc1)NN=Cc1ccc(I)cc1` [1,3-Bis(4-iodobenzylideneamino)guanidine Hydrochloride], the responders at 30 µg/mL in the assay on Eimeria tenella (setting [1]) is 55%. For the same compound, the “Activity (anti-coccidial)” value with coccidia (dosage 30 parts per million) is recorded as “active”.

Take `N=C(NN=Cc1ccc(C(F)(F)F)cc1)NN=Cc1ccc(C(F)(F)F)cc1` [1,3-Bis(4-trifluoromethylbenzylideneamino)guanidine hydrochloride]: the responders at 120 µg/mL with Eimeria tenella (7 days after inoculation) worked out at 100%.

Regarding `N=C(NN=Cc1ccc(OC(F)(F)F)cc1)NN=Cc1ccc(OC(F)(F)F)cc1` [1,3-bis(4-Trifluoromethoxybenzylideneamino)guanidine Hydrochloride], in the assay with Eimeria tenella (read-out: % Survival), the responders at 5 µg/mL was 80% and the responders at 10 µg/mL was 100%.

On to `N=C(NNCc1ccc(Cl)cc1)NNCc1ccc(Cl)cc1` [1,3-bis(4-chlorobenzylamino)guanidine], for which the responders at 10 µg/mL in the assay on Eimeria tenella (setting [2]) turned out to be 90%. In the assay with Eimeria tenella (7 days after inoculation), this compound gave a responders at 15 µg/mL of 90% and a responders at 20 µg/mL of 100%.

As for `Cl.N=C(NN=Cc1ccc(Cl)cc1)NN=Cc1ccc(Cl)cc1` [1,3-bis(4-chlorobenzylideneamino)-guanidine hydrochloride], the “% Survival” value in the assay on E. brunetti (15 ppm in diet), in the assay with E. brunetti (30 ppm in diet), in the assay on E. maxima (15 ppm in diet), in the assay with E. maxima (30 ppm in diet), with E. maxima (45 ppm in diet) and in the assay with E. mivati (15 ppm in diet) was 100% throughout. The “% Survival” value in the assay on E. mivati (30 ppm in diet) and in the assay with E. mivati (45 ppm in diet) was 100% each time. In addition, the Weight gain with E. brunetti (15 ppm in diet) was 100 % control; with E. brunetti (30 ppm in diet) it was 95 % control; in the assay on E. maxima (15 ppm in diet) it was 101 % control; in the assay on E. maxima (30 ppm in diet), 95 % control; in the assay with E. maxima (45 ppm in diet), 100 % control; in the assay on E. mivati (15 ppm in diet), 86 % control. Moreover, the Weight gain stood at 91 % control in the assay on E. mivati (30 ppm in diet) and 100 % control in the assay with E. mivati (45 ppm in diet). For the same compound, the responders at 8.5 µg/mL in the assay with Eimeria tenella (read-out: % Survival) was determined as 45%. In the assay with Eimeria tenella (read-out: % Survival), the responders at 17 µg/mL amounted to 75%. In addition, the responders at 33 µg/mL in the assay with Eimeria tenella (read-out: % Survival) stood at 100%. For the same compound, the “Activity (anti-coccidial)” value in the assay with coccidia (dosage 8.5 parts per million) is “active”.

With `N=C(NN=Cc1ccc(Cl)cc1)NN=Cc1ccc(Cl)cc1` [1,3-bis(4-chlorobenzylideneamino)guanidine methosulfate], the responders at 20 µg/mL in the assay on Eimeria tenella (7 days after inoculation) worked out at 59%. The same compound had a responders at 40 µg/mL with Eimeria tenella (40 parts per million in diet, 7 days after inoculation) of 90%. Also, the responders at 60 µg/mL in the assay on Eimeria tenella (60 parts per million in diet, 7 days after inoculation, read-out: % Survival) was 98%. In addition, in the assay with Eimeria necatrix (15 ppm in diet), the “% Survival” value is on record as 100% and the Weight gain is given as 80 % control. In addition, in the assay with Eimeria necatrix (30 ppm in diet), the “% Survival” value is 100% and the Weight gain was 103 % control. Besides, the “Activity (anti-coccidial)” value in the assay with coccidia (dosage 20 parts per million) is recorded as “active”.

In the assay on Eimeria tenella (7 days after inoculation), `N=C(NN=Cc1ccc(Cl)cc1)NNCc1ccc(Cl)cc1` [1-(4-Chlorobenzylamino)-3-(4-chlorobenzylideneamino)guanidine] registered a responders at 15 µg/mL of 90%. For the same compound, in the assay with Eimeria tenella (setting [1]), the responders at 30 µg/mL came to 100%.

`CC(=O)N=C(NN=Cc1ccc(Cl)cc1)NN=Cc1ccc(Cl)cc1` [2-acetyl-1,3-bis(4-chlorobenzylideneamino)guanidine]: in the assay with Eimeria tenella (5 parts per million in diet, 7 days after inoculation, read-out: % Survival), the responders at 5 µg/mL worked out at 67%. For the same compound, the responders at 10 µg/mL in the assay with Eimeria tenella (setting [2]) turned out to be 95%. Also, the responders at 30 µg/mL with Eimeria tenella (setting [1]) worked out at 100%.

As for `O=Cc1ccc2c(c1)OCO2` [9) piperonal, reference compound], the “Activity (anti-coccidial)” value in the assay on coccidia (dosage 125 parts per million) was “inactive”.

As to `O=Cc1ccccc1O` [11) salicylaldehyde, reference compound], in the assay on coccidia (dosage 125 parts per million), the “Activity (anti-coccidial)” value was “inactive”.

Take `O=Cc1ccccc1O` [12) salicylaldehyde, reference compound]: the “Activity (anti-coccidial)” value with coccidia (dosage 200 parts per million) is “inactive”.

Take `CC(=O)c1ccccc1` [14) acetophenone, reference compound]: the “Activity (anti-coccidial)” value with coccidia (dosage 250 parts per million) is “inactive”.
